Earlier results, collected in US20040018533A1, “Diagnosing predisposition to fat deposition and therapeutic methods for reducing fat deposition and treatment of associated conditions” (priority 2002, published 2004).

Biological target: P2X4 (Homo sapiens, UniProt Q99571)
Conditions: Xenopus oocytes

Chain of P2X4 (Q99571 whole entry, species assumed): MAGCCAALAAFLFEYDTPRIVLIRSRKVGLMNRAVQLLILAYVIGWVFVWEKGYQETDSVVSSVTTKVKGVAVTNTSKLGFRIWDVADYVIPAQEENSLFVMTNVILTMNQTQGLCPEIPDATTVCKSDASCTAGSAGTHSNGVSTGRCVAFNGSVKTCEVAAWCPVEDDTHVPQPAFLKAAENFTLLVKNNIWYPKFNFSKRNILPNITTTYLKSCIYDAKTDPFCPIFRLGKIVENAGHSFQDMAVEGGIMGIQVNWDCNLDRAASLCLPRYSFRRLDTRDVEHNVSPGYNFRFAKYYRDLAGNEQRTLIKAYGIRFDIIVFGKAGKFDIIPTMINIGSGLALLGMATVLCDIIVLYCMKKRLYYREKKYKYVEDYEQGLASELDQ

effect on P2X4 function: inhibits P2X4 function
Compound: CCO [ethanol]
